Assay results: patent US20220153746A1, “NITROGEN OXIDE-DONATING PDE-5 AND/OR PDE-6 INHIBITOR COMPOUNDS, AND USES THEREOF” (ILDONG PHARMACEUTICAL CO., LTD., priority 2020, published 2022)

Assay: Metabolic stability in human liver microsomes
Assay type: in vitro ADME
Details: 37° C., 0-60 minutes
Experimental: This example illustrates the metabolic stability of selected compounds in human liver microsomes samples.
Both test and control compound solutions were prepared by diluting 5 μL of the respective stock solutions (10 mM in DMSO) containing either the test or control compound with 495 μL of acetonitrile (ACN) to give intermediate solutions with concentrations of 100 μM (99% ACN).
β-Nicotinamide adenine dinucleotide phosphate tetrasodium salt (NADPH.4Na) was purchased from BONTAC (cat. No. BT04). The NADPH working solution (10 unit/mL) was prepared by combining the appropriate amount of NADPH powder and a MgCl2 solution (10 mM) to give final concentration in the reaction system of 1 unit/mL.
The appropriate concentrations of the microsome working solutions were prepared in 100 mM potassium phosphate buffer.
Cold (4° C.) acetonitrile solution containing 200 ng/mL tolbutamide and 200 ng/mL labetalol (internal standard) was used as the stop solution.
Liver microsomes solution was diluted to 0.56 mg/mL in 100 mM phosphate buffer, and 445 μL of this solution was transferred into pre-warmed (10 minutes) “incubation” plates T60 and NCF60; the “incubation” plates T60 and NCF60 were pre-warmed for 10 minutes at 37° C. with constant shaking.
54 μL of the liver microsome solutions was transferred to the blank plate, followed by addition of 6 μL of the NAPDH cofactor solution and 180 μL of the quenching solution to the same blank plate.
5 μL of the compound working solution (100 μM concentration) was next added to into the “incubation” plates (T60 and NCF60) containing microsomes and mixed 3 times thoroughly. For the NCF60 plate, 50 μL of the buffer solution was added, mixed 3 times thoroughly, and incubated at 37° C. for 60 minutes under constant shaking.
In the “Quenching” plate at T0 (T=0 min), 180 μL of quenching solution and 6 μL of the NAPDH cofactor solution were added, and the resulting plate was chilled to prevent evaporation.
In the T60 plate, after it was thoroughly mixed, 54 μL of the mixture was immediately transferred to the “quenching” plate for the 0-minute time point, followed by addition of 44 μL of NAPDH cofactor solution to the incubation plate (T60). The resulting mixture was then incubated at 37° C. for 60 minutes under constant shaking. At time points of 5, 10, 20, 30 and 60 minutes, 180 μL of the quenching solution was added to the “quenching” plates, followed by serial transfer of 60 μL of the mixture (per time point) from the T60 plate to the “Quenching” plates.
For the NCF60 plates, 60 μL of the sample solution was transferred from the NCF60 incubation plate to the “Quenching” plate containing quenching solution at T=60 min time point. […]

Row | SMILES | CLint scaled at 1 µM [mL/min/kg]
1 | CCCc1nn(C)c2c(=O)[nH]c(-c3cc(S(=O)(=O)N4CC(CCCO[N+](=O)[O-])C4)ccc3OCC)nc12 [Compound 18, 3-(1-((4-ethoxy-3-(1-methyl-7-oxo-3-propyl-6,7-dihydro-1H-pyrazolo[4,3-d]pyrimidin-5-yl)phenyl)sulfonyl)azetidin-3-yl)propyl nitrate] | 934
2 | CCCc1nn(C)c2c(=O)[nH]c(-c3cc(S(=O)(=O)N4CC(CCCO)C4)ccc3OCC)nc12 [Compound 4, 5-(2-ethoxy-5-((3-(3-hydroxypropyl)azetidin-1-yl)sulfonyl)phenyl)-1-methyl-3-propyl-1,6-dihydro-7H-pyrazolo[4,3-d]pyrimidin-7-one] | 357
